{"source": "patent US20080069785A1", "about": "“PEST-CONTROL COMPOSITIONS, AND METHODS AND PRODUCTS UTILIZING SAME” (priority 2004, published 2008)", "system": "cockroaches (Blattella germanica)", "assay": "Weeklong surface area toxicity test on cockroaches (Example 19)", "assay_type": "in vivo", "procedure": "In order determine the toxicity of the formulation to the insect after application to a surface over a period of time, the following test was performed. […] Cockroaches were placed in the cups on the first day following the application of the formulations, on the third day following the application of the formulations, and on the sixth day following the application of the formulations in order to monitor the toxicity of the formulations after a period of time had elapsed. The mortality of the cockroaches was then recorded at the time intervals noted. The five cockroaches placed in each cup were one week old cockroaches (Blattella germanica) which had been reared at twenty seven degrees centigrade, at sixty five percent relative humidity, and on a twelve hour light to dark photoperiod. Each of the cups had Fluon®AD1 treated sides to prevent the escape of the cockroaches.", "data": [{"smiles": "CCCCCCCCCC(C)=O", "note": "[Undecanone, 2-Undecanone]", "values": [{"measurement": "cockroaches alive (of five per cup)", "setting": "3-4 days treatment, 0.09 μL/cm^2 (5 μL), 23 h", "result": 5}, {"measurement": "cockroaches alive (of five per cup)", "setting": "3-4 days treatment, 0.09 μL/cm^2 (5 μL), 24 h", "result": 5}, {"measurement": "cockroaches alive (of five per cup)", "setting": "3-4 days treatment, 0.09 μL/cm^2 (5 μL), 27 h", "result": 5}, {"measurement": "cockroaches alive (of five per cup)", "setting": "3-4 days treatment, 0.09 μL/cm^2 (5 μL), 30 h", "result": 5}, {"measurement": "cockroaches alive (of five per cup)", "setting": "3-4 days treatment, 0.19 μL/cm^2 (10 μL), 5 min", "result": 5}, {"measurement": "cockroaches alive (of five per cup)", "setting": "3-4 days treatment, 0.19 μL/cm^2 (10 μL), 10 min", "result": 5}, {"measurement": "cockroaches alive (of five per cup)", "setting": "3-4 days treatment, 0.19 μL/cm^2 (10 μL), 15 min", "result": 5}, {"measurement": "cockroaches alive (of five per cup)", "setting": "3-4 days treatment, 0.19 μL/cm^2 (10 μL), 30 min", "result": 5}, {"measurement": "cockroaches alive (of five per cup)", "setting": "3-4 days treatment, 0.19 μL/cm^2 (10 μL), 60 min", "result": 5}, {"measurement": "cockroaches alive (of five per cup)", "setting": "3-4 days treatment, 0.19 μL/cm^2 (10 μL), 90 min", "result": 5}, {"measurement": "cockroaches alive (of five per cup)", "setting": "3-4 days treatment, 0.19 μL/cm^2 (10 μL), 2 h", "result": 5}, {"measurement": "cockroaches alive (of five per cup)", "setting": "3-4 days treatment, 0.19 μL/cm^2 (10 μL), 4 h", "result": 5}, {"measurement": "cockroaches alive (of five per cup)", "setting": "3-4 days treatment, 0.19 μL/cm^2 (10 μL), 23 h", "result": 5}, {"measurement": "cockroaches alive (of five per cup)", "setting": "3-4 days treatment, 0.19 μL/cm^2 (10 μL), 24 h", "result": 5}, {"measurement": "cockroaches alive (of five per cup)", "setting": "3-4 days treatment, 0.19 μL/cm^2 (10 μL), 27 h", "result": 5}, {"measurement": "cockroaches alive (of five per cup)", "setting": "3-4 days treatment, 0.19 μL/cm^2 (10 μL), 30 h", "result": 5}, {"measurement": "cockroaches alive (of five per cup)", "setting": "3-4 days treatment, 0.95 μL/cm^2 (50 μL), 5 min", "result": 5}, {"measurement": "cockroaches alive (of five per cup)", "setting": "3-4 days treatment, 0.95 μL/cm^2 (50 μL), 10 min", "result": 5}, {"measurement": "cockroaches alive (of five per cup)", "setting": "3-4 days treatment, 0.95 μL/cm^2 (50 μL), 15 min", "result": 5}, {"measurement": "cockroaches alive (of five per cup)", "setting": "3-4 days treatment, 0.95 μL/cm^2 (50 μL), 30 min", "result": 5}, {"measurement": "cockroaches alive (of five per cup)", "setting": "3-4 days treatment, 0.95 μL/cm^2 (50 μL), 60 min", "result": 5}, {"measurement": "cockroaches alive (of five per cup)", "setting": "3-4 days treatment, 0.95 μL/cm^2 (50 μL), 90 min", "result": 5}, {"measurement": "cockroaches alive (of five per cup)", "setting": "3-4 days treatment, 0.95 μL/cm^2 (50 μL), 2 h", "result": 3}, {"measurement": "cockroaches alive (of five per cup)", "setting": "3-4 days treatment, 0.95 μL/cm^2 (50 μL), 4 h", "result": 2}, {"measurement": "cockroaches alive (of five per cup)", "setting": "3-4 days treatment, 0.95 μL/cm^2 (50 μL), 23 h", "result": 1}, {"measurement": "cockroaches alive (of five per cup)", "setting": "3-4 days treatment, 0.95 μL/cm^2 (50 μL), 24 h", "result": 1}, {"measurement": "cockroaches alive (of five per cup)", "setting": "3-4 days treatment, 0.95 μL/cm^2 (50 μL), 27 h", "result": 0}, {"measurement": "cockroaches alive (of five per cup)", "setting": "3-4 days treatment, 0.95 μL/cm^2 (50 μL), 30 h", "result": 0}, {"measurement": "cockroaches alive (of five per cup)", "setting": "6-7 days treatment, 0.02 μL/cm^2 (1 μL), 5 min", "result": 5}, {"measurement": "cockroaches alive (of five per cup)", "setting": "6-7 days treatment, 0.02 μL/cm^2 (1 μL), 10 min", "result": 5}, {"measurement": "cockroaches alive (of five per cup)", "setting": "6-7 days treatment, 0.02 μL/cm^2 (1 μL), 15 min", "result": 5}, {"measurement": "cockroaches alive (of five per cup)", "setting": "6-7 days treatment, 0.02 μL/cm^2 (1 μL), 30 min", "result": 5}, {"measurement": "cockroaches alive (of five per cup)", "setting": "6-7 days treatment, 0.02 μL/cm^2 (1 μL), 60 min", "result": 5}, {"measurement": "cockroaches alive (of five per cup)", "setting": "6-7 days treatment, 0.02 μL/cm^2 (1 μL), 90 min", "result": 5}, {"measurement": "cockroaches alive (of five per cup)", "setting": "6-7 days treatment, 0.02 μL/cm^2 (1 μL), 2 h", "result": 5}, {"measurement": "cockroaches alive (of five per cup)", "setting": "6-7 days treatment, 0.02 μL/cm^2 (1 μL), 4 h", "result": 5}, {"measurement": "cockroaches alive (of five per cup)", "setting": "6-7 days treatment, 0.02 μL/cm^2 (1 μL), 21.5 h", "result": 5}, {"measurement": "cockroaches alive (of five per cup)", "setting": "6-7 days treatment, 0.02 μL/cm^2 (1 μL), 22 h", "result": 5}, {"measurement": "cockroaches alive (of five per cup)", "setting": "6-7 days treatment, 0.02 μL/cm^2 (1 μL), 23 h", "result": 5}, {"measurement": "cockroaches alive (of five per cup)", "setting": "6-7 days treatment, 0.02 μL/cm^2 (1 μL), 24 h", "result": 5}, {"measurement": "cockroaches alive (of five per cup)", "setting": "6-7 days treatment, 0.02 μL/cm^2 (1 μL), 27 h", "result": 5}, {"measurement": "cockroaches alive (of five per cup)", "setting": "6-7 days treatment, 0.02 μL/cm^2 (1 μL), 29 h", "result": 5}, {"measurement": "cockroaches alive (of five per cup)", "setting": "6-7 days treatment, 0.02 μL/cm^2 (1 μL), 30 h", "result": 5}, {"measurement": "cockroaches alive (of five per cup)", "setting": "6-7 days treatment, 0.02 μL/cm^2 (1 μL), 31 h", "result": 5}, {"measurement": "cockroaches alive (of five per cup)", "setting": "6-7 days treatment, 0.09 μL/cm^2 (5 μL), 5 min", "result": 5}, {"measurement": "cockroaches alive (of five per cup)", "setting": "6-7 days treatment, 0.09 μL/cm^2 (5 μL), 10 min", "result": 5}, {"measurement": "cockroaches alive (of five per cup)", "setting": "6-7 days treatment, 0.09 μL/cm^2 (5 μL), 15 min", "result": 5}, {"measurement": "cockroaches alive (of five per cup)", "setting": "6-7 days treatment, 0.09 μL/cm^2 (5 μL), 30 min", "result": 5}, {"measurement": "cockroaches alive (of five per cup)", "setting": "6-7 days treatment, 0.09 μL/cm^2 (5 μL), 60 min", "result": 5}, {"measurement": "cockroaches alive (of five per cup)", "setting": "6-7 days treatment, 0.09 μL/cm^2 (5 μL), 90 min", "result": 5}, {"measurement": "cockroaches alive (of five per cup)", "setting": "6-7 days treatment, 0.09 μL/cm^2 (5 μL), 2 h", "result": 5}, {"measurement": "cockroaches alive (of five per cup)", "setting": "6-7 days treatment, 0.09 μL/cm^2 (5 μL), 4 h", "result": 5}, {"measurement": "cockroaches alive (of five per cup)", "setting": "6-7 days treatment, 0.09 μL/cm^2 (5 μL), 21.5 h", "result": 5}, {"measurement": "cockroaches alive (of five per cup)", "setting": "6-7 days treatment, 0.09 μL/cm^2 (5 μL), 22 h", "result": 5}, {"measurement": "cockroaches alive (of five per cup)", "setting": "6-7 days treatment, 0.09 μL/cm^2 (5 μL), 23 h", "result": 5}, {"measurement": "cockroaches alive (of five per cup)", "setting": "6-7 days treatment, 0.09 μL/cm^2 (5 μL), 24 h", "result": 5}, {"measurement": "cockroaches alive (of five per cup)", "setting": "6-7 days treatment, 0.09 μL/cm^2 (5 μL), 27 h", "result": 5}, {"measurement": "cockroaches alive (of five per cup)", "setting": "6-7 days treatment, 0.09 μL/cm^2 (5 μL), 29 h", "result": 5}, {"measurement": "cockroaches alive (of five per cup)", "setting": "6-7 days treatment, 0.09 μL/cm^2 (5 μL), 30 h", "result": 5}, {"measurement": "cockroaches alive (of five per cup)", "setting": "6-7 days treatment, 0.09 μL/cm^2 (5 μL), 31 h", "result": 5}, {"measurement": "cockroaches alive (of five per cup)", "setting": "6-7 days treatment, 0.19 μL/cm^2 (10 μL), 5 min", "result": 5}, {"measurement": "cockroaches alive (of five per cup)", "setting": "6-7 days treatment, 0.19 μL/cm^2 (10 μL), 10 min", "result": 5}, {"measurement": "cockroaches alive (of five per cup)", "setting": "6-7 days treatment, 0.19 μL/cm^2 (10 μL), 15 min", "result": 5}, {"measurement": "cockroaches alive (of five per cup)", "setting": "6-7 days treatment, 0.19 μL/cm^2 (10 μL), 30 min", "result": 5}, {"measurement": "cockroaches alive (of five per cup)", "setting": "6-7 days treatment, 0.19 μL/cm^2 (10 μL), 60 min", "result": 5}, {"measurement": "cockroaches alive (of five per cup)", "setting": "6-7 days treatment, 0.19 μL/cm^2 (10 μL), 90 min", "result": 5}, {"measurement": "cockroaches alive (of five per cup)", "setting": "6-7 days treatment, 0.19 μL/cm^2 (10 μL), 2 h", "result": 5}, {"measurement": "cockroaches alive (of five per cup)", "setting": "6-7 days treatment, 0.19 μL/cm^2 (10 μL), 4 h", "result": 5}, {"measurement": "cockroaches alive (of five per cup)", "setting": "6-7 days treatment, 0.19 μL/cm^2 (10 μL), 21.5 h", "result": 5}, {"measurement": "cockroaches alive (of five per cup)", "setting": "6-7 days treatment, 0.19 μL/cm^2 (10 μL), 22 h", "result": 5}, {"measurement": "cockroaches alive (of five per cup)", "setting": "6-7 days treatment, 0.19 μL/cm^2 (10 μL), 23 h", "result": 5}, {"measurement": "cockroaches alive (of five per cup)", "setting": "6-7 days treatment, 0.19 μL/cm^2 (10 μL), 24 h", "result": 5}, {"measurement": "cockroaches alive (of five per cup)", "setting": "6-7 days treatment, 0.19 μL/cm^2 (10 μL), 27 h", "result": 5}, {"measurement": "cockroaches alive (of five per cup)", "setting": "6-7 days treatment, 0.19 μL/cm^2 (10 μL), 29 h", "result": 5}, {"measurement": "cockroaches alive (of five per cup)", "setting": "6-7 days treatment, 0.19 μL/cm^2 (10 μL), 30 h", "result": 5}, {"measurement": "cockroaches alive (of five per cup)", "setting": "6-7 days treatment, 0.19 μL/cm^2 (10 μL), 31 h", "result": 5}, {"measurement": "cockroaches alive (of five per cup)", "setting": "6-7 days treatment, 0.95 μL/cm^2 (50 μL), 21.5 h", "result": 2}, {"measurement": "cockroaches alive (of five per cup)", "setting": "6-7 days treatment, 0.95 μL/cm^2 (50 μL), 22 h", "result": 2}, {"measurement": "cockroaches alive (of five per cup)", "setting": "6-7 days treatment, 0.95 μL/cm^2 (50 μL), 23 h", "result": 2}, {"measurement": "cockroaches alive (of five per cup)", "setting": "6-7 days treatment, 0.95 μL/cm^2 (50 μL), 24 h", "result": 2}]}]}
